This note sets out measurements from publication PMC6017924, “Mycobacterium tuberculosis H37Rv LpqG Protein Peptides Can Inhibit Mycobacterial Entry through Specific Interactions” (Molecules : A Journal of Synthetic Chemistry and Natural …, 2018).

Where no end group is shown, it is not given here.

One data set deals with A549 cells. Format: cell-based. To be noted: MTT, 20 and 200 µM peptide in PBS, 2 h, 5 × 10^4 cells/well; data not shown. The protocol:
(§1) An MTT cell viability assay was used for evaluating LpqG peptides’ cytotoxic effect; it involved placing 5 × 10^4 cells/well for 2 h with 20 and 200 µM each peptide in PBS, using the afore-mentioned incubation conditions. Triton X-100 was used as cytotoxicity control; 10 µL MTT were then added for 12 h. The resulting formazan crystals were dissolved in SDS and absorbance read at 570 nm.

A further data set has as its system U937 cells. Type of data set: cell-based. To be noted: MTT, 20 and 200 µM peptide in PBS, 2 h, 5 × 10^4 cells/well; data not shown. The method, then:
as §1

Consider SGCDSHNSGSLGADPRQVTVY [compound 16661], for which the “cytotoxicity on A549 cells” value in the data set on A549 cells is reported as 4%. In the data set with U937 cells, the “cytotoxic effect on U937 cells” value is listed as “without having a cytotoxic effect”.
